According to patent US20090029992A1, “SUBSTITUTED PYRAZOLE COMPOUNDS” (priority 2007, published 2009):

Tests used:
HCT116 cells = assay: Whole cell cytotoxicity assay, Sulforhodamine B; assay type: cell-based; settings: Homo sapiens, HCT-116, HCT116, 96 hours incubation, SRB; for IC50: read-out: IC50 values in this assay (HCT116 cell growth); for GI50: read-out: GI50 HCT116 cell growth
Procedure, shortened: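 HCT116 cells (500/well) in DMEM/10% FBS/2 mM glutamine were preincubated 24 h, then exposed to compound for 96 h at 37 °C, 5% CO2, in duplicate. Cells were fixed with TCA and stained with sulforhodamine B (A570). GI50, TGI and LC50 were derived relative to a time-zero plate and an untreated control.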

[1] = target: T1, N-terminal GST-tagged recombinant human Flt3, residues 564-end (Homo sapiens, UniProt P36888); assay: Flt3 kinase inhibition assay (33P-ATP filter assay); assay type: biochemical
T1 construct: recombinant human Flt3, residues 564-end; GST (N); purchased Upstate USA Inc, 706 Forest Street, Charlottesville, Va
T1 sequence (P36888 564-993 limits assumed): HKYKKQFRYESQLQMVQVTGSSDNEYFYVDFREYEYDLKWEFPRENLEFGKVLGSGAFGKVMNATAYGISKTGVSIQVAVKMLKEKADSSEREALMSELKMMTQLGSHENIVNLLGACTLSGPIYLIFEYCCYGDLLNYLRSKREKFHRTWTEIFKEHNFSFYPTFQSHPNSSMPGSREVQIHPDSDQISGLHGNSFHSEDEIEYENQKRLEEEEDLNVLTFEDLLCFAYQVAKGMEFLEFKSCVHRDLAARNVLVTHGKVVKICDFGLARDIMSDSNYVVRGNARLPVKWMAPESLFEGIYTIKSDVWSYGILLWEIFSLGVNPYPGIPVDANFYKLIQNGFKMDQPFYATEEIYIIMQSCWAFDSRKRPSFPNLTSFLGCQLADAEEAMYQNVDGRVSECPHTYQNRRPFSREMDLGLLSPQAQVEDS
Procedure, shortened: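 Serial compound dilutions incubated 40 min at room temperature with 5-10 mU Flt3 kinase, 50 μM peptide substrate and [γ-33P]ATP/10 mM magnesium acetate, pH 7.0. Phosphoric acid stop, filter capture and scintillation counting; activity compared with uninhibited reactions.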

[2] = target: T2, N-terminal His-tagged human Src (Homo sapiens, UniProt P12931); assay: Src kinase inhibition assay (33P-ATP filter assay); assay type: biochemical
T2 construct: His (N); purchased Upstate USA Inc, 706 Forest Street, Charlottesville, Va
T2 sequence (P12931 whole entry): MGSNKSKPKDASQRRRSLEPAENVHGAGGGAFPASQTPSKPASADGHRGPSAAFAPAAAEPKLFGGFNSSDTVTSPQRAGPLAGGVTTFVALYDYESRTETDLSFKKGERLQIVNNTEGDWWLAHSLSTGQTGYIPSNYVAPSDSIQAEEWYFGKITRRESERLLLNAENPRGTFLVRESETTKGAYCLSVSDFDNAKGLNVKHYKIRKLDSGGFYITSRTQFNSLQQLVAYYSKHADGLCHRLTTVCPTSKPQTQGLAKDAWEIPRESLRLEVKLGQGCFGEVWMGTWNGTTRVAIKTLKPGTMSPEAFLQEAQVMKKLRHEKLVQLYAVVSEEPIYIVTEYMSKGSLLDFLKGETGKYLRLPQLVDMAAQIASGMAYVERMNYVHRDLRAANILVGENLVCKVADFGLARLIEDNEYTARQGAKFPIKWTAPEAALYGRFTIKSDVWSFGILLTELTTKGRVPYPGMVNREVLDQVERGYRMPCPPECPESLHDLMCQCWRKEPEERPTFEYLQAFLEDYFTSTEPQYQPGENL

[3] = group with IC50 greater than 100 nM

SMILES	IC50 (HCT116 cells)	IC50 ([1]; 40 minutes at room temperature)	IC50 [2, 3]	GI50 (HCT116 cells)	IC50 ([2]; 40 minutes at room temperature)	IC50 [1, 3]
COCCN(C)c1cc(Nc2cc(C)[nH]n2)nc(-c2ccccc2Cl)n1 [Compound 63]	1000 to 10000 nM	≤ 100 nM	≤ 1000 nM			
COCCN(C)c1cc(Nc2cc(C)[nH]n2)nc(-c2cccc(C)c2)n1 [Compound 65, N^4-(2-methoxyethyl)-N^4-methyl-N^6-(5-methyl-1H-pyrazol-3-yl)-2-m-tolylpyrimidine-4,6-diamine]	1000 to 10000 nM	≤ 100 nM	≤ 1000 nM			
COCCN(C)c1cc(Nc2cc(C)[nH]n2)nc(-c2ccc(OC)cc2)n1 [Compound 67, N^4-(2-methoxyethyl)-2-(4-methoxyphenyl)-N^4-methyl-N^6-(5-methyl-1H-pyrazol-3-yl)pyrimidine-4,6-diamine]	1000 to 10000 nM	≤ 100 nM	≤ 1000 nM			
COCCN(C)c1cc(Nc2cc(C)[nH]n2)nc(-c2cccc(OC)c2)n1 [Compound 68, N^4-(2-methoxyethyl)-2-(3-methoxyphenyl)-N^4-methyl-N^6-(5-methyl-1H-pyrazol-3-yl)pyrimidine-4,6-diamine]		≤ 100 nM	≤ 1000 nM	≤ 1000 nM		
Cc1cc(Nc2cc(NC3CCOCC3)nc(-c3ccc(C(C)(C)C)cc3)n2)n[nH]1 [Compound 70, 2-(4-tert-butylphenyl)-N^4-(5-methyl-1H-pyrazol-3-yl)-N^6-(tetrahydro-2H-pyran-4-yl)pyrimidine-4,6-diamine]	1000 to 10000 nM	≤ 100 nM	≤ 1000 nM			
Cc1cc(Nc2cc(NC3CCOCC3)nc(-c3ccc(C(F)(F)F)cc3)n2)n[nH]1 [Compound 79, N^4-(5-methyl-1H-pyrazol-3-yl)-N^6-(tetrahydro-2H-pyran-4-yl)-2-(4-(trifluoromethyl)phenyl)pyrimidine-4,6-diamine]	1000 to 10000 nM	≤ 100 nM	≤ 1000 nM			
Cc1cc(Nc2cc(NC3CCOCC3)nc(-c3cccc(C(F)(F)F)c3)n2)n[nH]1 [Compound 80, N^4-(5-methyl-1H-pyrazol-3-yl)-N^6-(tetrahydro-2H-pyran-4-yl)-2-(3-(trifluoromethyl)phenyl)pyrimidine-4,6-diamine]	1000 to 10000 nM	≤ 100 nM	≤ 1000 nM			
Cc1cc(Nc2cc(NC3CCOCC3)nc(-c3ccccc3C(F)(F)F)n2)n[nH]1 [Compound 81, N^4-(5-methyl-1H-pyrazol-3-yl)-N^6-(tetrahydro-2H-pyran-4-yl)-2-(2-(trifluoromethyl)phenyl)pyrimidine-4,6-diamine]	1000 to 10000 nM	≤ 100 nM	≤ 1000 nM			
Cc1cc(Nc2cc(N3CCN(C)CC3)nc(-c3cc(F)cc(Cl)c3)n2)n[nH]1 [Compound 97]		≤ 100 nM	≤ 1000 nM	≤ 1000 nM		
Cc1cc(Nc2cc(N3CCN(C)CC3)nc(-c3ccc(C(F)(F)F)cc3)n2)n[nH]1 [Compound 100]	1000 to 10000 nM	≤ 100 nM	≤ 1000 nM			
Cc1cc(Nc2cc(N3CCN(C)CC3)nc(-c3ccccc3C(F)(F)F)n2)n[nH]1 [Compound 102, N-(5-methyl-1H-pyrazol-3-yl)-6-(4-methylpiperazin-1-yl)-2-(2-(trifluoromethyl)phenyl)pyrimidin-4-amine]	1000 to 10000 nM	≤ 100 nM	≤ 1000 nM			
Cc1cc(Nc2cc(N(C)CCN(C)C)nc(-c3ccc(C(C)(C)C)cc3)n2)n[nH]1 [Compound 103, 2-(4-tert-butylphenyl)-N^4-(2-(dimethylamino)ethyl)-N^4-methyl-N^6-(5-methyl-1H-pyrazol-3-yl)pyrimidine-4,6-diamine]		≤ 100 nM		≤ 1000 nM	≤ 100 nM	
Cc1cc(Nc2cc(N(C)CCN(C)C)nc(-c3cccc(N(C)C)c3)n2)n[nH]1 [Compound 107]	1000 to 10000 nM	≤ 100 nM			≤ 100 nM	
Cc1cc(Nc2cc(N(C)CCN(C)C)nc(-c3cccc(C(F)(F)F)c3)n2)n[nH]1 [Compound 113, N^4-(2-(dimethylamino)ethyl)-N^4-methyl-N^6-(5-methyl-1H-pyrazol-3-yl)-2-(3-(trifluoromethyl)phenyl)pyrimidine-4,6-diamine]		≤ 100 nM		≤ 1000 nM	≤ 100 nM	
COCCN(C)c1cc(Nc2cc(C)[nH]n2)nc(-c2ccc(N(C)C)cc2)n1 [Compound 118, 2-(4-(dimethylamino)phenyl)-N^4-(2-methoxyethyl)-N^4-methyl-N^6-(5-methyl-1H-pyrazol-3-yl)pyrimidine-4,6-diamine]	1000 to 10000 nM	≤ 100 nM			≤ 100 nM	
COCCN(C)c1cc(Nc2cc(C)[nH]n2)nc(-c2cccc(C(F)(F)F)c2)n1 [Compound 125, N^4-(2-methoxyethyl)-N^4-methyl-N^6-(5-methyl-1H-pyrazol-3-yl)-2-(3-(trifluoromethyl)phenyl)pyrimidine-4,6-diamine]	1000 to 10000 nM		≤ 1000 nM			≤ 1000 nM
COCCN(C)c1cc(Nc2cc(C)[nH]n2)nc(-c2ccccc2C(F)(F)F)n1 [Example 126, N^4-(2-methoxyethyl)-N^4-methyl-N^6-(5-methyl-1H-pyrazol-3-yl)-2-(2-(trifluoromethyl)phenyl)pyrimidine-4,6-diamine]	1000 to 10000 nM	≤ 100 nM				
Cc1cc(Nc2cc(NC3CCOCC3)nc(-c3cccc4ccccc34)n2)n[nH]1 [Example 127, N^4-(5-methyl-1H-pyrazol-3-yl)-2-(naphthalen-1-yl)-N^6-(tetrahydro-2H-pyran-4-yl)pyrimidine-4,6-diamine]	1000 to 10000 nM	≤ 100 nM	≤ 1000 nM			
Cc1cc(Nc2cc(N3CCN(C)CC3)nc(-c3cccc4c3OCCO4)n2)n[nH]1 [Example 136, 2-(2,3-dihydrobenzo[b][1,4]dioxin-5-yl)-N-(5-methyl-1H-pyrazol-3-yl)-6-(4-methylpiperazin-1-yl)pyrimidin-4-amine]	1000 to 10000 nM	≤ 100 nM	≤ 1000 nM			
Cc1cc(Nc2cc(N(C)CCN(C)C)nc(-c3ccc4ccccc4c3)n2)n[nH]1 [Example 142, N^4-(2-(dimethylamino)ethyl)-N^4-methyl-N^6-(5-methyl-1H-pyrazol-3-yl)-2-(naphthalen-2-yl)pyrimidine-4,6-diamine]		≤ 100 nM		≤ 1000 nM	≤ 100 nM	
Cc1cc(Nc2cc(N(C)CCN(C)C)nc(-c3ccc4c(c3)OCO4)n2)n[nH]1 [Example 146, 2-(benzo[d][1,3]dioxol-5-yl)-N^4-(2-(dimethylamino)ethyl)-N^4-methyl-N^6-(5-methyl-1H-pyrazol-3-yl)pyrimidine-4,6-diamine]		≤ 100 nM		≤ 1000 nM	≤ 100 nM	
COCCN(C)c1cc(Nc2cc(C)[nH]n2)nc(-c2cccc3ccccc23)n1 [Example 148, N^4-(2-methoxyethyl)-N^4-methyl-N^6-(5-methyl-1H-pyrazol-3-yl)-2-(naphthalen-1-yl)pyrimidine-4,6-diamine]	1000 to 10000 nM	≤ 100 nM	≤ 1000 nM			
COCCN(C)c1cc(Nc2cc(C)[nH]n2)nc(-c2ccc3ccccc3c2)n1 [Example 149, N^4-(2-methoxyethyl)-N^4-methyl-N^6-(5-methyl-1H-pyrazol-3-yl)-2-(naphthalen-2-yl)pyrimidine-4,6-diamine]	1000 to 10000 nM	≤ 100 nM	≤ 1000 nM			
COCCN(C)c1cc(Nc2cc(C)[nH]n2)nc(-c2cccc3c2OCCO3)n1 [Example 150, 2-(2,3-dihydrobenzo[b][1,4]dioxin-5-yl)-N^4-(2-methoxyethyl)-N^4-methyl-N^6-(5-methyl-1H-pyrazol-3-yl)pyrimidine-4,6-diamine]	1000 to 10000 nM	≤ 100 nM				
Cc1cc(Nc2cc(N3CCN(C)CC3)nc(-c3ccc(-c4ccccc4)cc3)n2)n[nH]1 [Example 157, 2-(biphenyl-4-yl)-N-(5-methyl-1H-pyrazol-3-yl)-6-(4-methylpiperazin-1-yl)pyrimidin-4-amine]		≤ 100 nM		≤ 1000 nM	≤ 100 nM	
